Results taken from US11524966B1 (Valo Early Discovery, Inc., priority 2017, dated 2022).

Target: T1, USP28 (His-tagged USP28-FL-mammalian) (Homo sapiens, UniProt Q96RU2)
T1 construct: Expression of USP28 (1-1077)-TEV-6*His (pTT5 vector); made in house; host or cells: Expi293f cells (pTT5 vector)
T1 sequence (Q96RU2 1-1077): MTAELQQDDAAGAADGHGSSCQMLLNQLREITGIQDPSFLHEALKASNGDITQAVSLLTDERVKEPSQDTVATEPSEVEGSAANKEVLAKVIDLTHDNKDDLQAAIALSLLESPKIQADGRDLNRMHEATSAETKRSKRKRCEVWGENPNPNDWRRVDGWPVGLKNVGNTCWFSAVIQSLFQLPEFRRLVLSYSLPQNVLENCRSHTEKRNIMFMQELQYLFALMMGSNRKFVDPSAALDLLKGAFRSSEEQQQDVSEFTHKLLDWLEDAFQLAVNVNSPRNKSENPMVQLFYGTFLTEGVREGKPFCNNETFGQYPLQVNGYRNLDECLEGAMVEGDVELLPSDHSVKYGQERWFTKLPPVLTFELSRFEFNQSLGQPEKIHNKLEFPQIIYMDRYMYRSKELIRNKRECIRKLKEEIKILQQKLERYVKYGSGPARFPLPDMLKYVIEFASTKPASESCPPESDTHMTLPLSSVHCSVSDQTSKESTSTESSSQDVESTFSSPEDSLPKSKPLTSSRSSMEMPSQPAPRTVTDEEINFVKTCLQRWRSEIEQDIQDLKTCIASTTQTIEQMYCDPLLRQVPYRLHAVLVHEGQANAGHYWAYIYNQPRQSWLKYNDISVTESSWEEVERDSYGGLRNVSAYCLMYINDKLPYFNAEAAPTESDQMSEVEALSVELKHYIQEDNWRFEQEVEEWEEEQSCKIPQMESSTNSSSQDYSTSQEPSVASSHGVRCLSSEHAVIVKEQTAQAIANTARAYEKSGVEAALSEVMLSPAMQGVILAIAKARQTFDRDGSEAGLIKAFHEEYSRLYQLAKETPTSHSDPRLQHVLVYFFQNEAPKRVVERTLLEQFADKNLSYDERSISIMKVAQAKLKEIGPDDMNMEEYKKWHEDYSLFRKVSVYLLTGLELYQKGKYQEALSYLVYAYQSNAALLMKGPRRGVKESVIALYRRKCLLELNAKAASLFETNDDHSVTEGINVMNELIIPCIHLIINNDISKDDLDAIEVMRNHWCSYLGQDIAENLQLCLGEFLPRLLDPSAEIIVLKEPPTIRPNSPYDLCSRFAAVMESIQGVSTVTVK
Assay: Ubiquitin-Rhodamine 110 Assay for USP28 Activity, Example A-1(a)
Format: biochemical
Conditions: Ubiquitin-Rhodamine 110 assay, Example A-1(a); read-out: USP28 A-1(a) IC50 range
Summary of the method: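 IC50 from 4-parameter logistic fit of percent inhibition versus no-enzyme and DMSO controls; compounds 25 μM to 1.3 nM, 3-fold. Ub-Rh110 cleavage (25 nM, below Km) by […] mammalian-expressed USP28-FL-His ran 45 min at room temperature, stopped with 10 mM citric acid, read ex 485/em 535.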

Cc1nc2sc(C(=O)N[C@H]3COc4cc(N5CCNCC5)ncc4C3)c(N)c2cc1F [Example 72, (R)-3-amino-5-fluoro-6-methyl-N-(7-(piperazin-1-yl)-3,4-dihydro-2H-pyrano[3,2-c]pyridin-3-yl)thieno[2,3-b]pyridine-2-carboxamide]
IC50: 1 to 50 nM

C[C@H]1CCc2cc(C(=O)N[C@H]3COc4cc(N5CC6CCC(C5)N6)ccc4C3)cnc2N1 [Example 73, (7S)-N-((3R)-7-(3,8-diazabicyclo[3.2.1]octan-3-yl)chroman-3-yl)-7-methyl-5,6,7,8-tetrahydro-1,8-naphthyridine-3-carboxamide]
IC50: > 2000 nM

C[C@@H]1CCc2cc(C(=O)N[C@H]3COc4cc(N5CC6CCC(C5)N6)ccc4C3)cnc2N1 [Example 74, (7R)-N-((3R)-7-(3,8-diazabicyclo[3.2.1]octan-3-yl)chroman-3-yl)-7-methyl-5,6,7,8-tetrahydro-1,8-naphthyridine-3-carboxamide]
IC50: 50 to 200 nM

Cc1ccc2c(N)c(C(=O)N[C@H]3COc4cc(N5C[C@@H]6CC[C@H]5CN6)ncc4C3)sc2n1 [Example 75, N-((R)-7-((1S, 4S)-2 5-diazabicyclo[2.2.2]octan-2-yl)-3,4-dihydro-2H-pyrano[3,2-c]pyridin-3-yl)-3-amino-6-methylthieno[2,3-b]pyridine-2-carboxamide]
IC50: 1 to 50 nM

Cc1ccc2c(N)c(C(=O)N[C@H]3COc4cc(N5C[C@H]6CC[C@@H]5CN6)ncc4C3)sc2n1 [Example 76, N-((R)-7-((1 R,4R)-2,5-diazabicyclo[2.2.2]octan-2-yl)-3,4-dihydro-2H-pyrano[3,2-c]pyridin-3-yl)-3-amino-6-methylthieno[2,3-b]pyridine-2-carboxamide]
IC50: 1 to 50 nM

Cc1cnc2c(N)c(C(=O)N[C@H]3COc4c(C#N)c(N5CC6CC(C5)N6)cc(F)c4C3)sc2n1 [Example 77, N-((3R)-7-(3,6-diazabicyclo[3.1.1]heptan-3-yl)-8-cyano-5-fluorochroman-3-yl)-7-amino-3-methylthieno[2,3-b]pyrazine-6-carboxamide]
IC50: 50 to 200 nM

Cc1ccc2c(N)c(C(=O)N[C@H]3COc4c(F)c(N5CC6CNCC(C5)O6)cc(F)c4C3)sc2n1 [Example 78, N-((3R)-7-(9-oxa-3,7-diazabicyclo[3.3.1]nonan-3-yl)-5,8-difluorochroman-3-yl)-3-amino-6-methylthieno[2,3-b]pyridine-2-carboxamide]
IC50: 1 to 50 nM

Cc1ccc2c(N)c(C(=O)N[C@H]3COc4cc(N5CC6CNCC(C5)O6)c(F)c(F)c4C3)sc2n1 [Example 79, N-((3R)-7-(9-oxa-3,7-diazabicyclo[3.3.1]nonan-3-yl)-5,6-difluorochroman-3-yl)-3-amino-6-methylthieno[2,3-b]pyridine-2-carboxamide]
IC50: 1 to 50 nM

Cc1ccc2c(N)c(C(=O)N[C@H]3COc4cc([C@H]5CCNC[C@@H]5F)ccc4C3)sc2n1 [Example 80, 3-amino-N-((R)-7-((3R,4R)-3-fluoropiperidin-4-yl)chroman-3-yl)-6-methylthieno[2,3-b]pyridine-2-carboxamide]
IC50: 1 to 50 nM

Cc1ccc2c(N)c(C(=O)N[C@H]3COc4cc([C@@H]5CCNC[C@H]5F)ccc4C3)sc2n1 [Example 81, 3-amino-N-((R)-7-((3S,4S)-3-fluoropiperidin-4-yl)chroman-3-yl)-6-methylthieno[2,3-b]pyridine-2-carboxamide]
IC50: 1 to 50 nM

Cc1ccc2c(N)c(C(=O)N[C@H]3COc4cc([C@H]5CCNC[C@H]5F)ccc4C3)sc2n1 [Example 82, 3-amino-N-((R)-7-((3S,4R)-3-fluoropiperidin-4-yl)chroman-3-yl)-6-methylthieno[2,3-b]pyridine-2-carboxamide]
IC50: 1 to 50 nM

Cc1ccc2c(N)c(C(=O)N[C@H]3COc4cc([C@@H]5CCNC[C@@H]5F)ccc4C3)sc2n1 [Example 83, 3-amino-N-((R)-7-((3R,4S)-3-fluoropiperidin-4-yl)chroman-3-yl)-6-methylthieno[2,3-b]pyridine-2-carboxamide]
IC50: 1 to 50 nM

CCn1ccc2cc(C(=O)N[C@H]3COc4c(F)c([C@@H]5CCNC[C@@H]5O)cc(F)c4C3)nnc21 [Example 84, N-((R)-5,8-difluoro-7-((3R,4S)-3-hydroxypiperidin-4-yl)chroman-3-yl)-7-ethyl-7H-pyrrolo[2,3-c]pyridazine-3-carboxamide]
IC50: 200 to 2000 nM

CCn1ccc2cc(C(=O)N[C@H]3COc4c(F)c([C@H]5CCNC[C@H]5O)cc(F)c4C3)nnc21 [Example 85, N-((R)-5,8-difluoro-7-((3S,4R)-3-hydroxypiperidin-4-yl)chroman-3-yl)-7-ethyl-7H-pyrrolo[2,3-c]pyridazine-3-carboxamide]
IC50: 200 to 2000 nM

CO[C@@H]1CN(c2cc(F)c3c(c2F)OC[C@H](NC(=O)c2sc4nc(C)ccc4c2N)C3)C[C@H]1N [Example 86]
IC50: 1 to 50 nM

CO[C@H]1CN(c2cc(F)c3c(c2F)OC[C@H](NC(=O)c2sc4nc(C)ccc4c2N)C3)C[C@@H]1N [Example 87, 3-amino-N-((R)-7-((3S,4S)-3-amino-4-methoxypyrrolidin-1-yl)-5,8-difluorochroman-3-yl)-6-methylthieno[2,3-b]pyridine-2-carboxamide]
IC50: 1 to 50 nM

Cc1cc(C(F)F)c2c(N)c(C(=O)N[C@H]3COc4cc(N5CC6CNCC(C5)O6)ccc4C3)sc2n1 [Example 88, N-((3R)-7-(9-oxa-3,7-diazabicyclo[3.3.1]nonan-3-yl)chroman-3-yl)-3-amino-4-(difluoromethyl)-6-methylthieno[2,3-b]pyridine-2-carboxamide]
IC50: 1 to 50 nM

O=C(N[C@H]1COc2c(F)c(N3CC4CCC(C3)N4)cc(F)c2C1)c1cnc2c(c1)[C@@H]1C[C@@H]1CN2 [Example 89, (1aS, 7bR)-N-((3R)-7-(3 8-diazabicyclo[3.2.1]octan-3-yl)-5,8-difluorochroman-3-yl)-1a,2,3,7b-tetrahydro-1H-cyclopropa[c][1,8]naphthyridine-6-carboxamide]
IC50: 1 to 50 nM

O=C(N[C@H]1COc2c(F)c(N3CC4CCC(C3)N4)cc(F)c2C1)c1cnc2c(c1)[C@H]1C[C@H]1CN2 [Example 90, (1aR,7bS)-N-((3R)-7-(3,8-diazabicyclo[3.2.1]octan-3-yl)-5,8-difluorochroman-3-yl)-1a,2,3,7b-tetrahydro-1H-cyclopropa[c][1,8]naphthyridine-6-carboxamide]
IC50: 200 to 2000 nM

CO[C@@H]1CN(c2ccc3c(c2F)OC[C@H](NC(=O)c2sc4nc(C)ccc4c2N)C3)C[C@H]1N [Example 91, 3-amino-N-[(3R )-7-[(3R,4R)-3-amino-4-methoxypyrrolidin-1-yl]-8-fluoro-3,4-dihydro-2H-1-benzopyran-3-yl]-6-methylthieno[2,3-b]pyridine-2-carboxamide]
IC50: 50 to 200 nM

CO[C@H]1CN(c2ccc3c(c2F)OC[C@H](NC(=O)c2sc4nc(C)ccc4c2N)C3)C[C@@H]1N [Example 92, 3-amino-N-[(3R)-7-[(3S,4S)-3-amino-4-methoxypyrrolidin-1-yl]-8-fluoro-3,4-dihydro-2H-1-benzopyran-3-yl]-6-methylthieno[2,3-b]pyridine-2-carboxamide]
IC50: 1 to 50 nM

CO[C@@H]1CN(c2cc3c(cc2F)C[C@@H](NC(=O)c2sc4nc(C)ccc4c2N)CO3)C[C@H]1N [Example 93, 3-amino-N-[(3R)-7-[(3R,4R)-3-amino-4-methoxypyrrolidin-1-yl]-6-fluoro-3,4-dihydro-2H-1-benzopyran-3-yl]-6-methylthieno[2,3-b]pyridine-2-carboxamide]
IC50: 50 to 200 nM
